According to article PMC3397464, “Woodylides A–C, New Cytotoxic Linear Polyketides from the South China Sea Sponge Plakortis simplex” (Marine Drugs, 2012):
In brackets after ≈: the same amount, converted by molar mass.

Key:
[1] = test system: Cryptococcus neoformans (ATCC 90113); test: Antifungal evaluation, IC50 against C. neoformans; type: cell-based; settings: RPMI 1640; for IC50: Cryptococcus neoformans, ATCC90113, incubated 70–74 h at 35 °C
Experimental: (§1) The three new polyketides 1–3 were evaluated for antifungal activity against Cryptococcus neoformans (ATCC 90113), Candida albicans (Y0109), Trichophyton rubrum (Cmccftla) and Microsporum gypseum (Cmccfmza) (Table 2), for in vitro cytotoxic activity against human cancer cell lines, HCT-116 (colon cancer), A549 (lung carcinoma), HeLa (cervical cancer), QGY-7703 (hepatocarcinoma), and MDA231 (breast adenocarcinoma) (Table 3), and protein tyrosine phosphatase 1B (PTP1B) inhibitory activity (Table 3). […] Cytotoxicity of compound 3 against A549, HeLa, QGY-7703, and MDA231 cell lines was weaker when compared to that of 1. […] The PTP1B inhibitors are recognized as potential therapeutic agents for the treatment of type II diabetes and obesity.
Optical rotations were determined with a Perkin-Elmer 341 polarimeter with 1 mm cell. IR spectra were recorded on a Bruker vector 22 spectrometer with KBr pellets. The NMR experiments were conducted on Bruker AVANCE-600 and Bruker AMX-500 instruments. HRESIMS and ESIMS were obtained on a Q-Tof micro YA019 mass spectrometer. In antifungal evaluation, IC50 values were calculated on XLfit 4.2 software (IDBS: Alameda, CA, USA, 2005). Reversed-phase HPLC was performed on YMC-Pack Pro C18 RS (5 μm) columns with a Waters 1525/2998 liquid chromatograph. Column chromatographies were carried out on silica gel 60 (200–300 mesh; Yantai, China), Sephadex LH-20 (Amersham Biosciences). TLC was carried out using HSGF 254 plates and visualized by spraying with anisaldehyde-H2SO4 reagent.
(§2) Antifungal IC50 values of woodylides A–C against C. neoformans were calculated as described by Ikhlas A. Khan et al.. Amphotericin B was used as the positive control. Minimal Inhibition Concentration (MIC) values of woodylides A–C were determined against three indicators (C. albicans, T. rubrum, and M. gypseum), following the […] (NCCLS) methods. Fluconazole was used as the positive control. Briefly, samples (dissolved in DMSO) were serially diluted in 20% DMSO/saline and transferred (10 µL) in duplicate to 96 well flat bottom microplates. Bacterial strains were grown aerobically at 30 °C in SDA for 16–20 h. A set of different concentrations of compounds 1–3 prepared in RPMI 1640 were next inoculated with the microorganisms and incubated 70–74 h for C. neoformans at 35 °C, 46 h for C. albicans at 35 °C, and 4–7 days for T. rubrum and M. gypseum at 30 °C. The IC50 values were calculated by using the fit model 201 of XLfit 4.2 software.

[2] = test system: Microsporum gypseum (Cmccfmza); test: Antifungal evaluation, MIC (NCCLS broth dilution); type: cell-based; settings: Nannizzia gypsea, 4–7 days at 30 °C, range 1.25–640 μg/mL
Experimental: as §1, §2

[3] = test system: Trichophyton rubrum (Cmccftla); test: Antifungal evaluation, MIC (NCCLS broth dilution); type: cell-based; settings: 4–7 days at 30 °C, range 1.25–640 μg/mL, read-out: Antifungal Activity T. rubrum, MIC
Experimental: as §1, §2

Cytotoxicity MTT assay [4] = type: cell-based; settings: human, 48 h treatment, 1 to 100 μg/mL
Experimental: (§3) Cytotoxicity of compound 3 against A549, HeLa, QGY-7703, and MDA231 cell lines was weaker when compared to that of 1. […] The PTP1B inhibitors are recognized as potential therapeutic agents for the treatment of type II diabetes and obesity. The cytotoxicity of compounds 1-3 against HCT-116, A549, HeLa, QGY-7703, and MDA231 cell lines was evaluated by the MTT assay as described in a previous report. Briefly, compounds were solubilized in DMSO with the working concentration of test substances ranging from 1 to 100 μg/mL. Cells at the exponential growth phase were harvested and seeded into 96-well plates. After incubation for 24 h, the cells were treated with various concentrations of test substances for 48 h and then incubated with 1 mg/mL MTT at 37 °C for 4 h, followed by dissolving in DMSO. The produced formazan was measured by the absorbance at 570 nm on a microplate reader. The IC50 values were calculated on the basis of percentage inhibition using the linear regression method.

[5] = molecular target: T1, protein tyrosine phosphatase 1B (PTP1B) (Homo sapiens, UniProt P18031); test: PTP1B inhibitory assay (pNPP hydrolysis); type: biochemical; settings: recombinant PTP1B catalytic domain, 30 °C, pH 6.5
T1 construct: The enzymatic activities of the PTP1B catalytic domain were determined at 30 °C by monitoring the hydrolysis of pNPP
T1 sequence (P18031 3-277 limits assumed): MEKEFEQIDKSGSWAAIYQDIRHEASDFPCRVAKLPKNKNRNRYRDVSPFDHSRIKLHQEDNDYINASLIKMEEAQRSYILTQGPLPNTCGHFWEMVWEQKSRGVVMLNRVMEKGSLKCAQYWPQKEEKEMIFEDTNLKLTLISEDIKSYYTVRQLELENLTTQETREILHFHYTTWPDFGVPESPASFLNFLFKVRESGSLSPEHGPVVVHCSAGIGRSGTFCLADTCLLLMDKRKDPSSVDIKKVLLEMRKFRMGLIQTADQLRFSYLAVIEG
Experimental: The enzymatic activities of the PTP1B catalytic domain were determined at 30 °C by monitoring the hydrolysis of pNPP.

HeLa (cervical cancer) = test: Cytotoxicity MTT assay; type: cell-based, human; settings: 48 h treatment, 1 to 100 μg/mL
Experimental: as §3

Cytotoxicity MTT assay [6] = type: cell-based, human; settings: human, HeLa cells (cervical cancer), 48 h treatment, 1 to 100 μg/mL
Experimental: as §3

Candida albicans (Y0109) = test: Antifungal evaluation, MIC (NCCLS broth dilution); type: cell-based; settings: 46 h at 35 °C, range 1.25–640 μg/mL
Experimental: as §1, §2

IC50 [1] [µg/mL]	MIC [2] [µg/mL]	MIC [3] [µg/mL]	Structure (SMILES)	other results
			CCCCC(CC)CC(O)(/C=C(/CC)[C@@H](O)CC(=O)OC)CC (some centres unmarked) [Compound 2, Woodylide B]	Antifungal Activity C. neoformans, IC50 ([1]; incubated 70–74 h at 35 °C): inactive
0.35 (≈ 0.379 µM)			C[C@@H]1[C@H](O)[C@@H](C)/C=C/C=C/C=C/C=C/C=C/C=C/C=C/[C@H](O[C@@H]2O[C@H](C)[C@@H](O)[C@H](N)[C@@H]2O)C[C@@H]2O[C@](O)(C[C@@H](O)C[C@@H](O)[C@H](O)CC[C@@H](O)C[C@@H](O)CC(=O)O[C@H]1C)C[C@H](O)[C@H]2C(=O)O [Amphotericin B, reference compound]	
10.8 (≈ 36.1 µM)	32 (≈ 107 µM)	32 (≈ 107 µM)	CCCCC(C)CC(O)(C=C(CC)C(O)CC(=O)O)CC (centres unmarked) [Compound 3, Woodylide C]	IC50 at 48 h (Cytotoxicity MTT assay [4]; HCT-116 cells (colon cancer)): 9.4 µg/mL (≈ 31.3 µM); IC50 [5]: 15.6 µM
	8 (≈ 26.1 µM)	2 (≈ 6.53 µM)	OC(Cn1cncn1)(Cn1cncn1)c1ccc(F)cc1F [Fluconazole, reference compound]	
3.67 (≈ 11.7 µM)	32 (≈ 102 µM)	32 (≈ 102 µM)	CCCCC(C)CC(O)(/C=C(/CC)[C@@H](O)CC(=O)OC)CC (some centres unmarked) [Compound 1, Woodylide A]	Cytotoxicity IC50 HeLa (HeLa (cervical cancer)): 11.22 µg/mL; IC50 at 48 h (Cytotoxicity MTT assay [6]): 11.2 µg/mL (≈ 35.6 µM); MIC (Candida albicans (Y0109)): 32 µg/mL (≈ 102 µM); IC50 at 48 h (Cytotoxicity MTT assay [4]; A549 cells (lung carcinoma)): 37.8 µg/mL (≈ 120 µM); IC50 at 48 h (Cytotoxicity MTT assay [4]; QGY-7703 cells (hepatocarcinoma)): 25.8 µg/mL (≈ 82 µM)
